How the values were obtained:
CpCBM92B = molecular target: T1, CpCBM92B (Chitinophaga pinensis, UniProt A0A979GQH9); test: X-ray crystallography of soaked crystal; type: binding; details: sites in alpha, beta and gamma subdomains, saturating ligand soak
T1 construct: gene Cpin_2580; single CBM92 domain (incl. Arg955, Asp959 of beta subdomain), locus and borders only in supplement; His6-tagged, E. coli BL21 (DE3)

CpCBM92A = molecular target: T2, CpCBM92A (Chitinophaga pinensis, UniProt A0A979GQH9); test: isothermal titration calorimetry; details: 50 mM sodium phosphate pH 6.5; three equivalent binding sites (N fixed to 3)
T2 construct: gene Cpin_2580; single CBM92 domain (three WExF motifs incl. W481, W523, W565), borders only in supplement; pET21a, C-terminal His6, E. coli BL21 (DE3)
T2 sequence (A0A979GQH9 entry or part of it): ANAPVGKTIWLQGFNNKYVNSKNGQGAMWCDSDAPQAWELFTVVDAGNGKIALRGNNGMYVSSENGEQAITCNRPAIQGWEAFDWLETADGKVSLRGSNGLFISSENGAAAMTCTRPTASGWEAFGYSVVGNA
Description: isothermal titration calorimetry on CpCBM92A

T1 sequence (A0A979GQH9 entry or part of it): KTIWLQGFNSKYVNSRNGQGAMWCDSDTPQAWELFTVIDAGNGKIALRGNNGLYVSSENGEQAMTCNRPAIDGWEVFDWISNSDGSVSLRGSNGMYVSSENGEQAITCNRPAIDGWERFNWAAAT

| Kd (CpCBM92A) [µM] | SMILES | X-ray crystallography of soaked crystal (CpCBM92B; non-reducing end sugar in cleft) | X-ray crystallography of soaked crystal (CpCBM92B) |
| --- | --- | --- | --- |
| 202 ± 40 | OC[C@H]1O[C@@H](OC[C@H]2OC(O)[C@H](O)[C@@H](O)[C@@H]2O)[C@H](O)[C@@H](O)[C@@H]1O (stereo partly drawn) [G2, gentiobiose] | Adding either G2 or S2 to the protein crystals led to binding |  |
| 882 ± 107 | OC[C@H]1O[C@@H](O[C@H]2C(O)O[C@H](CO)[C@@H](O)[C@@H]2O)[C@H](O)[C@@H](O)[C@@H]1O (stereo partly drawn) [S2, sophorose] |  | Adding either G2 or S2 to the protein crystals led to binding |
| 1840 ± 200 | OC[C@H]1OC(O)[C@H](O)[C@@H](O)[C@@H]1O (stereo partly drawn) [glucose] |  | Soaking experiments of the CpCBM92B protein crystals with glucose, gentiobiose |

From paper PMC11039641, “Structural and biochemical analysis of family 92 carbohydrate-binding modules uncovers multivalent binding to β-glucans” (Nature Communications, 2024)
